Among the data in BindingDB's records for doi:10.1021/acs.jmedchem.0c00182 (Inception Therapeutics, 2020) are IC50 values, retold here.

This assay is described as follows: Inhibition of eIF4A1 in human HAP1 cells assessed as reduction in cell proliferation incubated for 72 hrs by CellTiter-Glo reagent based assay.

The structures appear in SMILES notation.

Regarding `COc1cc2c(c(OC)n1)[C@]1(O)[C@H](O)[C@H](CN(C)C)[C@@H](c3ccccc3)[C@]1(c1ccc(C#N)cc1)O2` [Zotatifin], the IC50 stood at 6.3 nM.

By IC50 is commonly meant the midpoint of a concentration-inhibition curve.
